# Legend:
# [1] = target: T1, Transcription regulator protein BACH1 (Homo sapiens) (UniProt O14867); assay: Inhibition of Bach1 in normal human lung fibroblasts assessed as induction of HMOX protein expression at 0.078 uM in presence of 0.3 uM Nrf2 activator DMF incubated for 16 to 18 hrs by immunostaining relative to control
# T1 sequence (whole entry): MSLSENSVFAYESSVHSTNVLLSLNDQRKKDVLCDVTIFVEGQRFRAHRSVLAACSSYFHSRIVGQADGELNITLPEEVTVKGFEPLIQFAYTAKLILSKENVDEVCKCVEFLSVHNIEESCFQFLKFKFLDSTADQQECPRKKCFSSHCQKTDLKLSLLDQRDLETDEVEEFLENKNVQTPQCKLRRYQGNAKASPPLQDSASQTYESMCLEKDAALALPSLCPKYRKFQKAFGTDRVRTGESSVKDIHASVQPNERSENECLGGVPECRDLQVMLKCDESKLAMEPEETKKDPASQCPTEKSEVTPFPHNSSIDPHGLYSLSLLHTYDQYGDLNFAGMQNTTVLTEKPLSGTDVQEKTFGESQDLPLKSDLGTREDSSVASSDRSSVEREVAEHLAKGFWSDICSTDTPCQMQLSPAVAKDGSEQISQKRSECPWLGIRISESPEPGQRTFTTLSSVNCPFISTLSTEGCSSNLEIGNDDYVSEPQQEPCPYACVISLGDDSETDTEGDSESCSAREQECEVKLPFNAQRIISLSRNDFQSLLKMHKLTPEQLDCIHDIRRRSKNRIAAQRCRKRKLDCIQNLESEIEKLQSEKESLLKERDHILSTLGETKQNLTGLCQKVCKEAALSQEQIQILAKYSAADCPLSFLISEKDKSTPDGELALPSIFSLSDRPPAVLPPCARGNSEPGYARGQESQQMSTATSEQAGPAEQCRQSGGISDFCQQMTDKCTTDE
# [2] = target: T1, Transcription regulator protein BACH1 (Homo sapiens); assay: Inhibition of Bach1 in normal human lung fibroblasts assessed as induction of HMOX protein expression at 0.039 uM in presence of 0.03 uM Nrf2 activator DMF incubated for 16 to 18 hrs by immunostaining relative to control
# [3] = target: T1, Transcription regulator protein BACH1 (Homo sapiens); assay: Inhibition of Bach1 in normal human lung fibroblasts assessed as induction of HMOX protein expression at 0.019 uM in presence of 30 uM Nrf2 activator DMF incubated for 16 to 18 hrs by immunostaining relative to control
# [4] = target: T1, Transcription regulator protein BACH1 (Homo sapiens); assay: Inhibition of Bach1 in normal human lung fibroblasts assessed as induction of HMOX protein expression by measuring HMOX positive cells level at 0.019 uM in presence of 1 uM Nrf2 activator DMF incubated for 16 to 18 hrs by immunostaining relative to control DMSO; set-up: scale not given: the % may be the effect or the level left
# [5] = target: T1, Transcription regulator protein BACH1 (Homo sapiens); assay: Inhibition of Bach1 in normal human lung fibroblasts assessed as induction of HMOX protein expression at 0.039 uM in presence of 3 uM Nrf2 activator DMF incubated for 16 to 18 hrs by immunostaining relative to control
# [6] = target: T1, Transcription regulator protein BACH1 (Homo sapiens); assay: Inhibition of Bach1 in normal human lung fibroblasts assessed as induction of HMOX protein expression by measuring HMOX positive cells level at 0.078 uM in presence of 0.1 uM Nrf2 activator DMF incubated for 16 to 18 hrs by immunostaining relative to control DMSO; set-up: scale not given: the % may be the effect or the level left
# [7] = target: T1, Transcription regulator protein BACH1 (Homo sapiens); assay: Inhibition of Bach1 in normal human lung fibroblasts assessed as induction of HMOX protein expression at 0.039 uM in presence of 1 uM Nrf2 activator DMF incubated for 16 to 18 hrs by immunostaining relative to control
# [8] = target: T1, Transcription regulator protein BACH1 (Homo sapiens); assay: Inhibition of Bach1 in normal human lung fibroblasts assessed as induction of HMOX protein expression by measuring HMOX positive cells level at 0.078 uM in presence of 0.03 uM Nrf2 activator DMF incubated for 16 to 18 hrs by immunostaining relative to control DMSO; set-up: scale not given: the % may be the effect or the level left
# [9] = target: T1, Transcription regulator protein BACH1 (Homo sapiens); assay: Inhibition of Bach1 in normal human lung fibroblasts assessed as induction of HMOX protein expression at 0.039 uM in presence of 0.3 uM Nrf2 activator DMF incubated for 16 to 18 hrs by immunostaining relative to control
# [10] = target: T1, Transcription regulator protein BACH1 (Homo sapiens); assay: Inhibition of Bach1 in normal human lung fibroblasts assessed as induction of HMOX protein expression by measuring HMOX positive cells level at 0.019 uM in presence of 0.03 uM Nrf2 activator DMF incubated for 16 to 18 hrs by immunostaining relative to control DMSO; set-up: scale not given: the % may be the effect or the level left
# [11] = target: T1, Transcription regulator protein BACH1 (Homo sapiens); assay: Inhibition of Bach1 in normal human lung fibroblasts assessed as induction of HMOX protein expression at 0.019 uM in presence of 0.03 uM Nrf2 activator DMF incubated for 16 to 18 hrs by immunostaining relative to control
# [12] = target: T1, Transcription regulator protein BACH1 (Homo sapiens); assay: Inhibition of Bach1 in normal human lung fibroblasts assessed as induction of HMOX protein expression at 0.156 uM in presence of 30 uM Nrf2 activator DMF incubated for 16 to 18 hrs by immunostaining relative to control
# [13] = target: T1, Transcription regulator protein BACH1 (Homo sapiens); assay: Inhibition of Bach1 in normal human lung fibroblasts assessed as induction of HMOX protein expression at 0.019 uM incubated for 16 to 18 hrs by immunostaining relative to control
# [14] = target: T1, Transcription regulator protein BACH1 (Homo sapiens); assay: Inhibition of Bach1 in normal human lung fibroblasts assessed as induction of HMOX protein expression by measuring HMOX positive cells level at 0.156 uM in presence of 10 uM Nrf2 activator DMF incubated for 16 to 18 hrs by immunostaining relative to control DMSO; set-up: scale not given: the % may be the effect or the level left
# [15] = target: T1, Transcription regulator protein BACH1 (Homo sapiens); assay: Inhibition of Bach1 in normal human lung fibroblasts assessed as induction of HMOX protein expression by measuring HMOX positive cells level at 0.078 uM in presence of 30 uM Nrf2 activator DMF incubated for 16 to 18 hrs by immunostaining relative to control DMSO; set-up: scale not given: the % may be the effect or the level left
# [16] = target: T1, Transcription regulator protein BACH1 (Homo sapiens); assay: Inhibition of Bach1 in normal human lung fibroblasts assessed as induction of HMOX protein expression at 0.156 uM in presence of 10 uM Nrf2 activator DMF incubated for 16 to 18 hrs by immunostaining relative to control
# [17] = target: T1, Transcription regulator protein BACH1 (Homo sapiens); assay: Inhibition of Bach1 in normal human lung fibroblasts assessed as induction of HMOX protein expression by measuring HMOX positive cells level at 0.019 uM in presence of 30 uM Nrf2 activator DMF incubated for 16 to 18 hrs by immunostaining relative to control DMSO; set-up: scale not given: the % may be the effect or the level left
# [18] = target: T1, Transcription regulator protein BACH1 (Homo sapiens); assay: Inhibition of Bach1 in normal human lung fibroblasts assessed as induction of HMOX protein expression at 0.039 uM in presence of 0.1 uM Nrf2 activator DMF incubated for 16 to 18 hrs by immunostaining relative to control
# [19] = target: T1, Transcription regulator protein BACH1 (Homo sapiens); assay: Inhibition of Bach1 in normal human lung fibroblasts assessed as induction of HMOX protein expression by measuring HMOX positive cells level at 0.039 uM in presence of 0.3 uM Nrf2 activator DMF incubated for 16 to 18 hrs by immunostaining relative to control DMSO; set-up: scale not given: the % may be the effect or the level left
# [20] = target: T1, Transcription regulator protein BACH1 (Homo sapiens); assay: Inhibition of Bach1 in normal human lung fibroblasts assessed as induction of HMOX protein expression at 0.156 uM in presence of 3 uM Nrf2 activator DMF incubated for 16 to 18 hrs by immunostaining relative to control
SMILES,fold change (FC) [1],fold change (FC) [2],fold change (FC) [3],Activity [4] [%],fold change (FC) [5],Activity [6] [%],fold change (FC) [7],Activity [8] [%],fold change (FC) [9],Activity [10] [%],fold change (FC) [11],fold change (FC) [12],fold change (FC) [13],Activity [14] [%],Activity [15] [%],fold change (FC) [16],Activity [17] [%],fold change (FC) [18],Activity [19] [%],fold change (FC) [20]
CN(C)C(=O)CNC(=O)c1ccc2c(c1)nc(Nc1nc3ccc(C(F)(F)F)cc3s1)n2C,1.73,1.28,4.65,10.2,3.01,8.24,2.1,5.99,1.61,1.18,1.1,5.49,1.29,100,96.2,6.55,84.2,1.35,12.8,4.57
COCCNC(=O)c1cnc2c(c1)nc(Nc1nc3ccc(OC(F)(F)F)cc3s1)n2C,1.43,1.07,4.23,7.52,2.84,7.05,1.97,1.72,1.59,1.8,1.17,4.99,1.24,99.7,86.8,5.58,84.9,1.08,13,3.63
Cn1c(Nc2nc3ccc(C(F)(F)F)cc3s2)nc2cc(C(=O)NCCOCCO)ccc21,3.21,1.81,4.9,26.4,4,44.6,2.6,33.5,1.81,4.94,1.31,6.18,2.08,100,91.3,7.5,84,1.52,18.7,7.69
CNC(=O)c1ccc2c(c1)nc(Nc1nc3ccc(OC(F)(F)F)cc3s1)n2C,–,–,–,–,–,–,–,–,–,–,–,–,0.97,–,–,–,–,–,–,–

# — ChEMBL document CHEMBL4421728, “Bach1 Inhibitors in Combination with Nrf2 Activators and Pharmaceutical Compositions Thereof” (2017)
